These results are taken from ChEMBL document CHEMBL2074283, “Interaction of pristinamycin IA with P-glycoprotein in human intestinal epithelial cells” (Eur J Pharmacol, 1995).

The structures appear in SMILES notation. Bridge positions count the residues as written; N and C are the ends. Square brackets hold non-standard residues; d marks the D form. Peptide text beside a SMILES is read from it. * marks the point of attachment. NMePhe(4-NMe2) = CN[C@@H](Cc1ccc(N(C)C)cc1)C(=O)O; Pip(4-oxo) = O=C1CCN[C@H](C(=O)O)C1; Picolinoyl(3-OH) = O=C(c1ncccc1O)*; Phg = N[C@H](C(=O)O)c1ccccc1; dAbu = CC[C@@H](N)C(=O)O

What is called inhibition is the relative decrease from the control value, in per cent. Lower therefore signals a weak effect.

In one series the target is P-glycoprotein (ABCB1) (Homo sapiens, UniProt P08183). Put plainly: TP_TRANSPORTER: inhibition of Vinblastine transepithelial transport (basal to apical) (Vinblastine: 0.05 uM, Pristinamycin IA: 100 uM) in Caco-2 cells. Type of series: functional, cell-based. The settings on record: Caco-2, probe Vinblastine 0.05 uM. (In general: Passage across Caco-2 layers is used to estimate intestinal permeability.)
Sequence of P-glycoprotein (ABCB1) (P08183 whole entry): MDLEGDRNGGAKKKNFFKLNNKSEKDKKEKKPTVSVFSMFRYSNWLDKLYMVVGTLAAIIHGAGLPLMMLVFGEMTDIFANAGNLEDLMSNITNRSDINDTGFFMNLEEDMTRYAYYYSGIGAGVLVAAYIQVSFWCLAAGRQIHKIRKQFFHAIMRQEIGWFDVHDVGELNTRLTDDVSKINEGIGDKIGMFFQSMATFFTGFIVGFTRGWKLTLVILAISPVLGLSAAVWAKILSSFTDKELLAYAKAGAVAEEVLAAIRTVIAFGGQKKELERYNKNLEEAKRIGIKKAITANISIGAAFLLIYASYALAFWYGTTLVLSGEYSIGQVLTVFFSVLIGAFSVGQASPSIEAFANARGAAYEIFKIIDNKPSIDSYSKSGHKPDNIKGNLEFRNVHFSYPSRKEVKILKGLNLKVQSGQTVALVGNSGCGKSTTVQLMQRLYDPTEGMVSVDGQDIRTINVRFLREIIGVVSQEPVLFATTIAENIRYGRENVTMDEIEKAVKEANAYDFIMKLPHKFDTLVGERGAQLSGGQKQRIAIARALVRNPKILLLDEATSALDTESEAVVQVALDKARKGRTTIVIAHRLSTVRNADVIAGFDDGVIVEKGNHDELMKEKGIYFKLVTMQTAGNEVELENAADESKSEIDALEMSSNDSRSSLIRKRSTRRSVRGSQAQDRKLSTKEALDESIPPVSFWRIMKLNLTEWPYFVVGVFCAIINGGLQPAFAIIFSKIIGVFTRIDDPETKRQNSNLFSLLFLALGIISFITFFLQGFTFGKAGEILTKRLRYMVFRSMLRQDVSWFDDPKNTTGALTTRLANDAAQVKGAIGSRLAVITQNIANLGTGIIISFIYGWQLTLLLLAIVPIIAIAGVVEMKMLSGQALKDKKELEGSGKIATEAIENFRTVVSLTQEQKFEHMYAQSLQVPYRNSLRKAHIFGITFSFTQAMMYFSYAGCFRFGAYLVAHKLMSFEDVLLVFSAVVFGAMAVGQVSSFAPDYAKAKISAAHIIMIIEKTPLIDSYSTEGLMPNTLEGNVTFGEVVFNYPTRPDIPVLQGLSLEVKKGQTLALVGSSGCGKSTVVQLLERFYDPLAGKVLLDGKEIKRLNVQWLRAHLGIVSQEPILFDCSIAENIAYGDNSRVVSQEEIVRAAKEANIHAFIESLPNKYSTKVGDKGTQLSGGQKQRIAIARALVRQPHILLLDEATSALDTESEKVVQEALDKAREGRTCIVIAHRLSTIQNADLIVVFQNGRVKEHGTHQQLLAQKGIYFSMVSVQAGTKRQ

Series [1] has as its target ATP-dependent translocase ABCB1 (Homo sapiens, UniProt P08183). In words: TP_TRANSPORTER: transepithelial transport (basal to apical) in Caco-2 cells. In kind it is functional, cell-based.

Sequence of ATP-dependent translocase ABCB1 (P08183 whole entry): as above

Regarding `CC[C@H]1NC(=O)[C@@H](NC(=O)c2ncccc2O)[C@@H](C)OC(=O)[C@H](c2ccccc2)NC(=O)[C@@H]2CC(=O)CCN2C(=O)[C@H](Cc2ccc(N(C)C)cc2)N(C)C(=O)[C@@H]2CCCN2C1=O` [PRISTINAMYCIN 1A] ({Picolinoyl(3-OH)}-T[dAbu]P[NMePhe(4-NMe2)][Pip(4-oxo)][Phg]; ester 1-C), 100 µM produced 55% inhibition at P-glycoprotein (ABCB1). The Activity entry in series [1] is “substrate [+]”.
